Results from patent US20260097047A1, “Small molecule inhibitors of the ribosome biogenesis factor NVL2” (Board of Regents, The University of Texas System, priority 2023, published 2026).

Key:
[1] = Drug levels in plasma and tumor at end of efficacy study (NSG mice); type: in vivo, mouse; settings: 3 hours after the last treatment dose, 35 mg/kg IP twice a day for 21 days
Method: Having established the kinetics of MM927 mediated NVL inhibition in xenograft tumors, we administered 35 mg/kg MM927 IP twice a day for 21 days to mice harboring tumors derived from either HCT116 NVL wild type or NVL^R403W cells. […] Taken together, we concluded that the potent, and bioavailable analog MM927 reduces tumor growth in mouse xenografts by inhibiting NVL without toxicity.
Pharmacokinetic studies were performed by dosing 6-7 week old CD-1 female mice with analog MM927 formulated as 10% DMSO/10% Kolliphor EL/10% Solutal/70% D5W via the intraperitoneal route. […] The resulting supernatants were evaluated by LC-MS/MS using a Sciex (Framingham, MA) 4500 Triple Quad coupled to a Shimadzu (Columbia, MD) Prominence LC. Briefly, MM927 was detected in multiple reaction monitoring mode (MRM) using the (m+1) transition 488.059/176.1. […] The concentrations of drug in each time-point sample were quantified using Analyst software (Sciex). […] The limit of quantitation (LOQ) was defined as the lowest concentration at which back calculation yielded a concentration within 20% of theoretical and which was above the LOD. Cmax and AUC values were calculated using the noncompartmental analysis tool of Phoenix WinNonLin (Certara/Pharsight, Sunnyvale, CA). […]

60S biogenesis = assay: SNAP-tag labeling of existing and newly synthesized eL36 (60S) and eS17 (40S); type: cell-based, human; settings: 24 hours
Source text: The observed reduction in free 60S using polysome profiling could be the consequence of decreased 60S synthesis or accelerated 60S degradation, or a combination of the two. To distinguish between existing and newly synthesized 60S, we engineered HCT116 cells to express a C-terminal SNAP-tag on eL36, a ribosomal protein incorporated into the 60S subunit prior to NVL binding (39) or a control C-terminal SNAP-tag on a component of the small ribosomal subunit, eS17, to monitor 40S biogenesis (40). We first labeled existing eL36 or eS17 in cells with an Oregon green benzylguanine (green). Then, we treated cells for 24 hours with either vehicle or MM017 before adding a 647-SiR benzylguanine to label the pool of proteins synthesized over the 24-hour period and evaluated each polysome profile fraction for either existing or new proteins. […] MM017 treatment had no impact on the levels or fractionation pattern of existing eL36-SNAP.
Next, we examined the impact of MM017 on the subcellular localization of eL36-SNAP (60S) or eS17-SNAP (40S). As expected for mature ribosomes, existing eL36-SNAP was nearly completely cytoplasmic, and treatment with MM017 had no impact on its localization. In vehicle treated cells, newly synthesized eL36-SNAP was both nucleolar and cytoplasmic, reflecting its presence in pre-60S and mature ribosomes. […]

CC#CCN1C(=O)c2ccc(F)cc2Sc2cc(NC(=O)c3ccc4oc(=O)n(C)c4c3)ccc21 [MM927, N-(10-(But-2-yn-1-yl)-3-fluoro-11-oxo-10,11-dihydrodibenzo[b,f][1,4]thiazepin-7-yl)-3-methyl-2-oxo-2,3-dihydrobenzo[d]oxazole-5-carboxamide]
level in plasma and tumor [1]: micromolar levels

COCCN1C(=O)c2ccccc2Sc2cc(NC(=O)c3ccoc3)ccc21 [MM017]
effect on 40S subunits (eS17-SNAP) (60S biogenesis): no impact on 40S subunits | newly synthesized eL36-SNAP in polysome profile fractions (60S biogenesis): reduced in the 60S, 80S, and polysome fractions
